Data: the supplement of paper PMC10307832

What was measured:
Experiment in all cases: relative viability (nuclei count vs DMSO), 5 days (fraction); higher = more cells survive
LK-2 = system: LK-2
Outline: (§1)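 The day after seeding in 1536-well plates, lung cancer cell lines were treated by pin tool with a single drug, or with a fixed anchor-drug dose together with five library-drug doses (not always all listed) in √10 steps. After 5 days, a combined fix-and-stain solution (final 0.05% Triton X-100, 1% formaldehyde, 1 ug/ml Hoechst) was added. Nuclei counted on 4× images gave relative viability as treated counts over vehicle counts, reported as the median of duplicate plates.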

NCI-H1666 = system: NCI-H1666
Outline: as §1

ABC-1 = system: ABC-1
Outline: as §1

NCI-H2009 = system: NCI-H2009
Outline: as §1

BEN = system: BEN
Outline: as §1

NCI-H441 = system: NCI-H441
Outline: as §1

LOU-NH91 = system: LOU-NH91
Outline: as §1

HARA = system: HARA
Outline: as §1

PC-14 = system: PC-14
Outline: as §1

CAL-12T = system: CAL-12T
Outline: as §1

201T = system: 201T
Outline: as §1

HCC-366 = system: HCC-366
Outline: as §1

NCI-H460 = system: NCI-H460
Outline: as §1

NCI-H727 = system: NCI-H727
Outline: as §1

EKVX = system: EKVX
Outline: as §1

SW 900 = system: SW 900
Outline: as §1

NCI-H3122 = system: NCI-H3122
Outline: as §1

COR-L 105 = system: COR-L 105
Outline: as §1

NCI-H661 = system: NCI-H661
Outline: as §1

NCI-H1650 = system: NCI-H1650
Outline: as §1

NCI-H1437 = system: NCI-H1437
Outline: as §1

NCI-H2170 = system: NCI-H2170
Outline: as §1

O=c1cc(N2CCOCC2)oc2c(-c3cccc4c3sc3ccccc34)cccc12 + O=C(CCCCCCC(=O)Nc1ccccc1)NO [Vorinostat] (partner 1 µM)
relative viability (LK-2; first compound 0.01 µM): 0.343 | relative viability (LK-2; first compound 0.03162 µM): 0.267 | relative viability (LK-2; first compound 0.1 µM): 0.345 | relative viability (LK-2; first compound 0.3162 µM): 0.233 | relative viability (LK-2; first compound 1 µM): 0.27 | relative viability (NCI-H1666; first compound 0.01 µM): 0.985 | relative viability (NCI-H1666; first compound 0.03162 µM): 1.04 | relative viability (NCI-H1666; first compound 0.1 µM): 1.19 | relative viability (NCI-H1666; first compound 0.3162 µM): 1.03 | relative viability (NCI-H1666; first compound 1 µM): 1.04 | relative viability (ABC-1; first compound 0.01 µM): 1.36 | relative viability (ABC-1; first compound 0.03162 µM): 1.58 | relative viability (ABC-1; first compound 0.1 µM): 1.31 | relative viability (ABC-1; first compound 0.3162 µM): 1.17 | relative viability (ABC-1; first compound 1 µM): 1.02 | relative viability (NCI-H2009; first compound 0.01 µM): 0.715 | relative viability (NCI-H2009; first compound 0.03162 µM): 0.727 | relative viability (NCI-H2009; first compound 0.1 µM): 0.696 | relative viability (NCI-H2009; first compound 0.3162 µM): 0.761 | relative viability (NCI-H2009; first compound 1 µM): 0.7 | relative viability (BEN; first compound 0.01 µM): 0.56 | relative viability (BEN; first compound 0.03162 µM): 0.627 | relative viability (BEN; first compound 0.1 µM): 0.49 | relative viability (BEN; first compound 0.3162 µM): 0.583 | relative viability (BEN; first compound 1 µM): 0.655 | relative viability (NCI-H441; first compound 0.01 µM): 0.731 | relative viability (NCI-H441; first compound 0.03162 µM): 0.704 | relative viability (NCI-H441; first compound 0.1 µM): 1.09 | relative viability (NCI-H441; first compound 0.3162 µM): 0.829 | relative viability (NCI-H441; first compound 1 µM): 0.724 | relative viability (LOU-NH91; first compound 0.01 µM): 0.623 | relative viability (LOU-NH91; first compound 0.03162 µM): 0.881 | relative viability (LOU-NH91; first compound 0.1 µM): 0.894 | relative viability (LOU-NH91; first compound 0.3162 µM): 1.04 | relative viability (LOU-NH91; first compound 1 µM): 0.904 | relative viability (HARA; first compound 0.01 µM): 0.409 | relative viability (HARA; first compound 0.03162 µM): 0.588 | relative viability (HARA; first compound 0.1 µM): 0.543 | relative viability (HARA; first compound 0.3162 µM): 0.546 | relative viability (HARA; first compound 1 µM): 0.46 | relative viability (PC-14; first compound 0.01 µM): 0.682 | relative viability (PC-14; first compound 0.03162 µM): 0.75 | relative viability (PC-14; first compound 0.1 µM): 0.713 | relative viability (PC-14; first compound 0.3162 µM): 0.84 | relative viability (PC-14; first compound 1 µM): 0.768 | relative viability (CAL-12T; first compound 0.01 µM): 0.967 | relative viability (CAL-12T; first compound 0.03162 µM): 0.828 | relative viability (CAL-12T; first compound 0.1 µM): 0.727 | relative viability (CAL-12T; first compound 0.3162 µM): 0.748 | relative viability (CAL-12T; first compound 1 µM): 0.618 | relative viability (201T; first compound 0.01 µM): 0.961 | relative viability (201T; first compound 0.03162 µM): 0.95 | relative viability (201T; first compound 0.1 µM): 0.982 | relative viability (201T; first compound 0.3162 µM): 0.959 | relative viability (201T; first compound 1 µM): 0.915 | relative viability (HCC-366; first compound 0.01 µM): 0.386 | relative viability (HCC-366; first compound 0.03162 µM): 0.362 | relative viability (HCC-366; first compound 0.1 µM): 0.339 | relative viability (HCC-366; first compound 0.3162 µM): 0.395 | relative viability (HCC-366; first compound 1 µM): 0.371 | relative viability (NCI-H460; first compound 0.01 µM): 0.68 | relative viability (NCI-H460; first compound 0.03162 µM): 0.773 | relative viability (NCI-H460; first compound 0.1 µM): 0.957 | relative viability (NCI-H460; first compound 0.3162 µM): 0.655 | relative viability (NCI-H460; first compound 1 µM): 0.75 | relative viability (NCI-H727; first compound 0.01 µM): 1.12 | relative viability (NCI-H727; first compound 0.03162 µM): 1.31 | relative viability (NCI-H727; first compound 0.1 µM): 0.626 | relative viability (NCI-H727; first compound 0.3162 µM): 1.04 | relative viability (NCI-H727; first compound 1 µM): 1.19 | relative viability (EKVX; first compound 0.01 µM): 0.723 | relative viability (EKVX; first compound 0.03162 µM): 0.748 | relative viability (EKVX; first compound 0.1 µM): 0.681 | relative viability (EKVX; first compound 0.3162 µM): 0.753 | relative viability (EKVX; first compound 1 µM): 0.736 | relative viability (SW 900; first compound 0.03162 µM): 0.508 | relative viability (SW 900; first compound 0.1 µM): 0.364 | relative viability (SW 900; first compound 0.3162 µM): 0.544 | relative viability (SW 900; first compound 1 µM): 0.359 | relative viability (NCI-H3122; first compound 0.01 µM): 0.933 | relative viability (NCI-H3122; first compound 0.03162 µM): 1.02 | relative viability (NCI-H3122; first compound 0.1 µM): 1.04 | relative viability (NCI-H3122; first compound 0.3162 µM): 0.895 | relative viability (NCI-H3122; first compound 1 µM): 1.02 | relative viability (COR-L 105; first compound 0.01 µM): 0.764 | relative viability (COR-L 105; first compound 0.03162 µM): 0.788 | relative viability (COR-L 105; first compound 0.1 µM): 0.899 | relative viability (COR-L 105; first compound 0.3162 µM): 0.911 | relative viability (COR-L 105; first compound 1 µM): 0.918 | relative viability (NCI-H661; first compound 0.01 µM): 0.761 | relative viability (NCI-H661; first compound 0.03162 µM): 0.793 | relative viability (NCI-H661; first compound 0.1 µM): 0.836 | relative viability (NCI-H661; first compound 0.3162 µM): 0.79 | relative viability (NCI-H661; first compound 1 µM): 0.765 | relative viability (NCI-H1650; first compound 0.01 µM): 0.485 | relative viability (NCI-H1650; first compound 0.03162 µM): 0.692 | relative viability (NCI-H1650; first compound 0.1 µM): 0.547 | relative viability (NCI-H1650; first compound 0.3162 µM): 0.631 | relative viability (NCI-H1650; first compound 1 µM): 0.49 | relative viability (NCI-H1437; first compound 0.01 µM): 0.822 | relative viability (NCI-H1437; first compound 0.03162 µM): 0.874 | relative viability (NCI-H1437; first compound 0.1 µM): 0.866 | relative viability (NCI-H1437; first compound 0.3162 µM): 0.784 | relative viability (NCI-H1437; first compound 1 µM): 0.806 | relative viability (NCI-H2170; first compound 0.01 µM): 0.804 | relative viability (NCI-H2170; first compound 0.03162 µM): 0.882 | relative viability (NCI-H2170; first compound 0.1 µM): 0.697 | relative viability (NCI-H2170; first compound 0.3162 µM): 0.784 | relative viability (NCI-H2170; first compound 1 µM): 0.824
